{"source": "paper PMC8429728", "about": "“TNK1 is a ubiquitin-binding and 14-3-3-regulated kinase that can be targeted to block tumor growth” (Nature Communications, 2021)", "assay_in_all_cases": "biochemical", "parameters_in_all_cases": "Reaction Biology 371-kinase panel at Km ATP, per cent enzyme activity relative to DMSO, single dose in duplicate", "settings_in_all_cases": "duplicate measurements, Km ATP", "key": {"[1]": {"biological_target": "BMX/ETK (Homo sapiens, UniProt P51813)", "summary_of_the_method": "(§1)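 Activity of each kinase, normalised to DMSO-treated controls, served as the read-out. The inhibitor was tested at 300 nM against 371 kinases in vitro. Curves fitted by variable-slope sigmoidal dose-response, constrained to a bottom of 0, gave IC50.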"}, "[2]": {"biological_target": "CAMKK1 (Homo sapiens, UniProt Q8N5S9)", "summary_of_the_method": "as §1"}, "[3]": {"biological_target": "CDK9/cyclin T1 (Homo sapiens, UniProt P50750)", "summary_of_the_method": "as §1"}, "[4]": {"biological_target": "CLK3 (Homo sapiens, UniProt P49761)", "summary_of_the_method": "as §1"}, "[5]": {"biological_target": "T1, DCAMKL1 (Homo sapiens, UniProt O15075)", "T1 construct": "gene DCLK1", "summary_of_the_method": "as §1"}, "[6]": {"biological_target": "DYRK2 (Homo sapiens, UniProt Q92630)", "summary_of_the_method": "as §1"}, "[7]": {"biological_target": "ERBB2/HER2 (Homo sapiens, UniProt P04626)", "sequence (P04626 whole entry)": "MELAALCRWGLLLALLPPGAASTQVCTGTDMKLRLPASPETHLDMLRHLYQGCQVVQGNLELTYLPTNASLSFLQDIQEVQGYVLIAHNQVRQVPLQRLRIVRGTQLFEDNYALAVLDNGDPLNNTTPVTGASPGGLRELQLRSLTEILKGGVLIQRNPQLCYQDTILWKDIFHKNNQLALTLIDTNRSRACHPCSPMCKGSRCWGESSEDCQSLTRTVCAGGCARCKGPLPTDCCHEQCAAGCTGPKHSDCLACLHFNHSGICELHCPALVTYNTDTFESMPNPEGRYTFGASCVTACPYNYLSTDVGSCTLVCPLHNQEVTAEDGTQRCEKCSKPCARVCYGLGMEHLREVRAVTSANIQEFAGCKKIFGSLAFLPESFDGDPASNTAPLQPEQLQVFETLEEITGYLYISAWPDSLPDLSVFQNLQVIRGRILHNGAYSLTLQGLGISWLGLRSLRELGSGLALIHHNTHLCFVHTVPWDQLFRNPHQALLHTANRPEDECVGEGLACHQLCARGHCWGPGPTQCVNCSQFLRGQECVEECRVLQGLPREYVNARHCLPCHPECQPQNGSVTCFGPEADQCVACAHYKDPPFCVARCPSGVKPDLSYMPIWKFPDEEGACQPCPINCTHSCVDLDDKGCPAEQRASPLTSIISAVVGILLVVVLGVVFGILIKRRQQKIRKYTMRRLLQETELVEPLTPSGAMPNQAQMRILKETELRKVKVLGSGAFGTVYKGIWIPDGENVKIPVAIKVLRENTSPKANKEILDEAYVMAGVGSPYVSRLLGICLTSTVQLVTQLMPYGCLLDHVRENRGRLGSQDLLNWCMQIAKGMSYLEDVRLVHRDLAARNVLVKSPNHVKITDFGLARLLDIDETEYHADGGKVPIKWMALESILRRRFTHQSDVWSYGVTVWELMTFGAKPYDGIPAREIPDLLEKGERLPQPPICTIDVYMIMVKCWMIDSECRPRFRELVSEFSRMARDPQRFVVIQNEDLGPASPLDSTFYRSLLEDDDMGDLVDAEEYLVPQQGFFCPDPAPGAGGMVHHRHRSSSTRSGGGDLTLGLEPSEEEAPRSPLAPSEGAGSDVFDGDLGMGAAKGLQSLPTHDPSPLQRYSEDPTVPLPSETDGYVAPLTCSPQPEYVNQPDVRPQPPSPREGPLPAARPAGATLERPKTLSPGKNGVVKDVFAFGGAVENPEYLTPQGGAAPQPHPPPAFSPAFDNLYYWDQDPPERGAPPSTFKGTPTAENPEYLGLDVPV", "summary_of_the_method": "as §1"}, "[8]": {"biological_target": "T2, ERK1 (Homo sapiens, UniProt P27361)", "T2 construct": "gene MAPK3", "T2 sequence (P27361 whole entry)": "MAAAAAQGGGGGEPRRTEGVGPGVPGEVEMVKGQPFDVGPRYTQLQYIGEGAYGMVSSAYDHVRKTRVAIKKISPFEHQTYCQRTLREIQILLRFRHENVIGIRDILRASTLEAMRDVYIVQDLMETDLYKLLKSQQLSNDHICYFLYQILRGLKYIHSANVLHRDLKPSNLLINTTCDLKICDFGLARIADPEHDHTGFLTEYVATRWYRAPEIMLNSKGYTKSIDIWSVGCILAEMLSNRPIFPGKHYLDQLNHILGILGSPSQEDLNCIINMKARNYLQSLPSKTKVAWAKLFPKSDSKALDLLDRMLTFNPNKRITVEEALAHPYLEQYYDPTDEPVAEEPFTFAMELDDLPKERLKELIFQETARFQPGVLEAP", "summary_of_the_method": "as §1"}, "[9]": {"biological_target": "ERK7/MAPK15 (Homo sapiens, UniProt Q8TD08)", "sequence (Q8TD08 whole entry)": "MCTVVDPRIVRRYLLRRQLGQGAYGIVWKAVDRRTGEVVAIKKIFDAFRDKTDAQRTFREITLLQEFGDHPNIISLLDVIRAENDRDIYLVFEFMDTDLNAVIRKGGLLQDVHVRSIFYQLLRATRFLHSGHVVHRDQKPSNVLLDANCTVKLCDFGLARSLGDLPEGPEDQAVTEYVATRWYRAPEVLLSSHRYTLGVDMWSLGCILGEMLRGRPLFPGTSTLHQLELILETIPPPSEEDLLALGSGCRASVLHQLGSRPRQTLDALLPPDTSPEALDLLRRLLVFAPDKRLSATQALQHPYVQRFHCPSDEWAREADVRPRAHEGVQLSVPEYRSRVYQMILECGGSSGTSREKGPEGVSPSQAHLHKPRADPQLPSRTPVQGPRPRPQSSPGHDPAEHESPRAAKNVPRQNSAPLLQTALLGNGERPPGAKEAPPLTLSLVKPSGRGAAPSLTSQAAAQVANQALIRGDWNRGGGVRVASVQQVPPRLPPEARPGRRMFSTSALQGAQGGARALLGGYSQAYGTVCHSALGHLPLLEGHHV", "summary_of_the_method": "as §1"}, "[10]": {"biological_target": "FRK/PTK5 (Homo sapiens, UniProt P42685)", "summary_of_the_method": "as §1"}, "[11]": {"biological_target": "GRK6 (Homo sapiens, UniProt P43250)", "summary_of_the_method": "as §1"}, "[12]": {"biological_target": "LATS1 (Homo sapiens, UniProt O95835)", "summary_of_the_method": "as §1"}, "[13]": {"biological_target": "LOK/STK10 (Homo sapiens, UniProt O94804)", "summary_of_the_method": "as §1"}, "[14]": {"biological_target": "MARK3 (Homo sapiens, UniProt P27448)", "summary_of_the_method": "as §1"}, "[15]": {"biological_target": "NEK6 (Homo sapiens, UniProt Q9HC98)", "sequence (Q9HC98 whole entry)": "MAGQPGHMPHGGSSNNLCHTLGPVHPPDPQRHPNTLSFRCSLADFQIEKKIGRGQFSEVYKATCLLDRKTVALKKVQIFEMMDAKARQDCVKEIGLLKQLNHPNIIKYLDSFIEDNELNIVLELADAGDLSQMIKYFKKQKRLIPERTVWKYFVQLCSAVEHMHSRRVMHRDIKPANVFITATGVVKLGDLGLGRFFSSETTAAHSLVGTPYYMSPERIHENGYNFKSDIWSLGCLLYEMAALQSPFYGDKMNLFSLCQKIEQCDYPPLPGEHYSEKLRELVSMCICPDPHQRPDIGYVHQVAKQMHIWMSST", "summary_of_the_method": "as §1"}, "[16]": {"biological_target": "T3, NIM1 (Homo sapiens, UniProt Q8IY84)", "T3 construct": "gene NIM1K", "summary_of_the_method": "as §1"}, "[17]": {"biological_target": "SSTK/TSSK6 (Homo sapiens, UniProt Q9BXA6)", "summary_of_the_method": "as §1"}, "[18]": {"biological_target": "STK21/CIT (Homo sapiens, UniProt O14578)", "sequence (O14578 whole entry)": "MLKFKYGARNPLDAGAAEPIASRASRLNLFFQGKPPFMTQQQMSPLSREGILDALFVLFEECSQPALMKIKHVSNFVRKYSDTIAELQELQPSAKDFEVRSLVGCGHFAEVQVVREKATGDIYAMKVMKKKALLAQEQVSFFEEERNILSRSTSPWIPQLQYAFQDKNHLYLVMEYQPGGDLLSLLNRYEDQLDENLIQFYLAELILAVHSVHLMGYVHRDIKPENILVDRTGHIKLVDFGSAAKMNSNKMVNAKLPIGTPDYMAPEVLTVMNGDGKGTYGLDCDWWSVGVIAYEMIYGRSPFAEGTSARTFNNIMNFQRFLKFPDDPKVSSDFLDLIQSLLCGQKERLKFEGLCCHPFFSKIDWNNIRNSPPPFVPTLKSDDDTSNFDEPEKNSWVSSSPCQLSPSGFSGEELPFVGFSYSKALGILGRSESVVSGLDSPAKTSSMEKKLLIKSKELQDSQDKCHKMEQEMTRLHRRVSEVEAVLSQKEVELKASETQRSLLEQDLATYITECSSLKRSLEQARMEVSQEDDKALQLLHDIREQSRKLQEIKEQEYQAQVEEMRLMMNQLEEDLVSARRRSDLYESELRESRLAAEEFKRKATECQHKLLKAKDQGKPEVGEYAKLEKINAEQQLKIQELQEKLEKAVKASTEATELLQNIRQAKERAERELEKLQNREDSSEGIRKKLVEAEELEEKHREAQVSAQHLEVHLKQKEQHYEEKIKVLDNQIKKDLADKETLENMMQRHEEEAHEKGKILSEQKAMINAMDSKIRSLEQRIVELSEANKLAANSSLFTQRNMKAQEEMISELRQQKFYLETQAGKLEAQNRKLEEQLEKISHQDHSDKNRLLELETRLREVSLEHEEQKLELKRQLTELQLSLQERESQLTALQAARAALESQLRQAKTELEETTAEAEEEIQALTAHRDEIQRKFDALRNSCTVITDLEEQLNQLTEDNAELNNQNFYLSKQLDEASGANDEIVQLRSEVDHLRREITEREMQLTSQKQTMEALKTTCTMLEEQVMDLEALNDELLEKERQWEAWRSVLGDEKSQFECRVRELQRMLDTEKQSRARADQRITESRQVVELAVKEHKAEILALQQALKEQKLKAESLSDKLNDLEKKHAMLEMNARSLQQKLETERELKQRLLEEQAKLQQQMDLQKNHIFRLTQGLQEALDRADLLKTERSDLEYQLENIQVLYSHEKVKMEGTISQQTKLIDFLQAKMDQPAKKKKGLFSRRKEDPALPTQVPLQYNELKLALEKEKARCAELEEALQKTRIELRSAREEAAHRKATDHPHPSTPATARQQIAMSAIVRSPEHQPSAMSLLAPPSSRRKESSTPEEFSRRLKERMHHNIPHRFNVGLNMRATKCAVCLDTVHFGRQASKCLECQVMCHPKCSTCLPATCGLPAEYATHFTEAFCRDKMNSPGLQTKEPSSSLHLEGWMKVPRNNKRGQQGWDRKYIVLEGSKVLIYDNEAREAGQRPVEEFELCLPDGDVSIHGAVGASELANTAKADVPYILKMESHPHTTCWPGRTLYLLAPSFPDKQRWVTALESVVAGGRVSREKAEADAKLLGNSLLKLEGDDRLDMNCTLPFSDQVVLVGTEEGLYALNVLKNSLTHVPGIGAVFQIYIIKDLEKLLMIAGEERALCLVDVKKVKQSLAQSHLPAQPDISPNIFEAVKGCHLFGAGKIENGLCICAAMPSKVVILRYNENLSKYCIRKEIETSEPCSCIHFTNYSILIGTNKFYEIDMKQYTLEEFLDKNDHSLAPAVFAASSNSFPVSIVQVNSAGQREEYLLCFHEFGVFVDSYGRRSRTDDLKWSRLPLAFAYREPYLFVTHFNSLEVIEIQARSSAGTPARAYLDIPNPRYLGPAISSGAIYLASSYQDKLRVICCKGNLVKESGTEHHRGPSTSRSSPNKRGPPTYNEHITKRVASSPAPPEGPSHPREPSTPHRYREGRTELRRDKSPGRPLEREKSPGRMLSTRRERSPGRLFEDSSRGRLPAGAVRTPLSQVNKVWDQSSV", "summary_of_the_method": "as §1"}, "[19]": {"biological_target": "STK38L/NDR2 (Homo sapiens, UniProt Q9Y2H1)", "summary_of_the_method": "as §1"}, "[20]": {"biological_target": "TESK2 (Homo sapiens, UniProt Q96S53)", "sequence (Q96S53 whole entry)": "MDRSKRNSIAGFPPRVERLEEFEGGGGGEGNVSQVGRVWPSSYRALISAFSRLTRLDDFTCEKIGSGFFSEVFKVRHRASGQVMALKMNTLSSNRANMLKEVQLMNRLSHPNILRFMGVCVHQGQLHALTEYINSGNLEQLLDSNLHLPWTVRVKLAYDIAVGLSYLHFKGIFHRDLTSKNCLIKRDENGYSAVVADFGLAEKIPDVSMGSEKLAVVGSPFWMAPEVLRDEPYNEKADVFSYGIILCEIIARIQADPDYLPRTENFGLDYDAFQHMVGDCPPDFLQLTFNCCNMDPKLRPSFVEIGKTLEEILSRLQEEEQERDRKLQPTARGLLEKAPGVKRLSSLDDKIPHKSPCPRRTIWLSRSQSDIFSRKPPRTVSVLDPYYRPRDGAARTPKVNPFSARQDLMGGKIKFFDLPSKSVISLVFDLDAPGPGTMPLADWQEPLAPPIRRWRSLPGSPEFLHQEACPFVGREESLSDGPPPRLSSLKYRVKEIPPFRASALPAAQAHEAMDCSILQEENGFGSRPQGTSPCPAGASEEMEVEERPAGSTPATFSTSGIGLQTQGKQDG", "summary_of_the_method": "as §1"}, "[21]": {"settings": "read-out: % Enzyme Activity (relative to DMSO controls) / TP-0005801 (0.3µM) / Data 1"}, "[22]": {"settings": "read-out: % Enzyme Activity (relative to DMSO controls) / TP-0005801 (0.3µM) / Data 2"}}, "note": "Like-named read-outs stand apart in the source and are kept apart here.", "data": [{"smiles": "COc1cc(N2CCN(C)CC2)c(C)cc1Nc1ncc(Br)c(Nc2cccnc2N(C)C)n1", "note": "[TP-5801]", "values": [{"measurement": "remaining activity at 0.3 µM", "setting": "[1]; [21]", "result": 115, "unit": "%"}, {"measurement": "remaining activity at 0.3 µM", "setting": "[1]; [22]", "result": 114, "unit": "%"}, {"measurement": "remaining activity at 0.3 µM", "setting": "[2]; [21]", "result": 77.1, "unit": "%"}, {"measurement": "remaining activity at 0.3 µM", "setting": "[2]; [22]", "result": 74, "unit": "%"}, {"measurement": "remaining activity at 0.3 µM", "setting": "[3]; [21]", "result": 128, "unit": "%"}, {"measurement": "remaining activity at 0.3 µM", "setting": "[3]; [22]", "result": 115, "unit": "%"}, {"measurement": "remaining activity at 0.3 µM", "setting": "[4]; [21]", "result": 79.1, "unit": "%"}, {"measurement": "remaining activity at 0.3 µM", "setting": "[4]; [22]", "result": 77.3, "unit": "%"}, {"measurement": "remaining activity at 0.3 µM", "setting": "[5]; [21]", "result": 94.9, "unit": "%"}, {"measurement": "remaining activity at 0.3 µM", "setting": "[5]; [22]", "result": 93.4, "unit": "%"}, {"measurement": "remaining activity at 0.3 µM", "setting": "[6]; [21]", "result": 94.2, "unit": "%"}, {"measurement": "remaining activity at 0.3 µM", "setting": "[6]; [22]", "result": 90.5, "unit": "%"}, {"measurement": "remaining activity at 0.3 µM", "setting": "[7]; [21]", "result": 82.3, "unit": "%"}, {"measurement": "remaining activity at 0.3 µM", "setting": "[7]; [22]", "result": 81.7, "unit": "%"}, {"measurement": "remaining activity at 0.3 µM", "setting": "[8]; [21]", "result": 108, "unit": "%"}, {"measurement": "remaining activity at 0.3 µM", "setting": "[8]; [22]", "result": 107, "unit": "%"}, {"measurement": "remaining activity at 0.3 µM", "setting": "[9]; [21]", "result": 97.2, "unit": "%"}, {"measurement": "remaining activity at 0.3 µM", "setting": "[9]; [22]", "result": 96.4, "unit": "%"}, {"measurement": "remaining activity at 0.3 µM", "setting": "[10]; [21]", "result": 72, "unit": "%"}, {"measurement": "remaining activity at 0.3 µM", "setting": "[10]; [22]", "result": 71, "unit": "%"}, {"measurement": "remaining activity at 0.3 µM", "setting": "[11]; [21]", "result": 86.9, "unit": "%"}, {"measurement": "remaining activity at 0.3 µM", "setting": "[11]; [22]", "result": 83.9, "unit": "%"}, {"measurement": "remaining activity at 0.3 µM", "setting": "[12]; [21]", "result": 103, "unit": "%"}, {"measurement": "remaining activity at 0.3 µM", "setting": "[12]; [22]", "result": 102, "unit": "%"}, {"measurement": "remaining activity at 0.3 µM", "setting": "[13]; [21]", "result": 74.7, "unit": "%"}, {"measurement": "remaining activity at 0.3 µM", "setting": "[13]; [22]", "result": 73.7, "unit": "%"}, {"measurement": "remaining activity at 0.3 µM", "setting": "[14]; [21]", "result": 95.4, "unit": "%"}, {"measurement": "remaining activity at 0.3 µM", "setting": "[14]; [22]", "result": 91.7, "unit": "%"}, {"measurement": "remaining activity at 0.3 µM", "setting": "[15]; [21]", "result": 95.2, "unit": "%"}, {"measurement": "remaining activity at 0.3 µM", "setting": "[15]; [22]", "result": 91.5, "unit": "%"}, {"measurement": "remaining activity at 0.3 µM", "setting": "[16]; [21]", "result": 102, "unit": "%"}, {"measurement": "remaining activity at 0.3 µM", "setting": "[16]; [22]", "result": 95.6, "unit": "%"}, {"measurement": "remaining activity at 0.3 µM", "setting": "[17]; [21]", "result": 111, "unit": "%"}, {"measurement": "remaining activity at 0.3 µM", "setting": "[17]; [22]", "result": 107, "unit": "%"}, {"measurement": "remaining activity at 0.3 µM", "setting": "[18]; [21]", "result": 107, "unit": "%"}, {"measurement": "remaining activity at 0.3 µM", "setting": "[18]; [22]", "result": 105, "unit": "%"}, {"measurement": "remaining activity at 0.3 µM", "setting": "[19]; [21]", "result": 53.1, "unit": "%"}, {"measurement": "remaining activity at 0.3 µM", "setting": "[19]; [22]", "result": 52.8, "unit": "%"}, {"measurement": "remaining activity at 0.3 µM", "setting": "[20]; [21]", "result": 92.8, "unit": "%"}, {"measurement": "remaining activity at 0.3 µM", "setting": "[20]; [22]", "result": 90.1, "unit": "%"}]}]}
